What was measured:
Trypanosoma cruzi [1] = assay: microbe, parasite or virus in culture; format: functional, organism-based, Tulahuen LacZ, Clone C4; details: Trypanosoma cruzi, Tulahuen LacZ, Clone C4
[2] = DNDI: Cytotoxicity against L-6 rat myoblasts from skeletal muscle cells; details: L6 rat skeletal muscle myoblast cells
Trypanosoma cruzi [3] = assay: microbe, parasite or virus in culture; format: functional, Tulahuen LacZ, Clone C4; details: Trypanosoma cruzi, Tulahuen LacZ, Clone C4

| Compound | IC50 (Trypanosoma cruzi [1]) | IC90 (Trypanosoma cruzi [3]) | IC50 ([2]; IC50) | IC50 [2] |
| --- | --- | --- | --- | --- |
| Clc1ccc(C(c2cccnc2)N2CCCCC2)cc1 (centres undefined) | 180 nM | 450 nM | > 100000 nM | – |
| CCCCOC(Cc1ccc(Cl)nc1)c1ccc(Cl)cc1Cl (centres undefined) | > 10000 nM | > 10000 nM | 91400 nM | – |
| CN1CCN(C(c2ccc(Cl)cc2)c2cccnc2)CC1 (centres undefined) | > 1000 nM | > 1000 nM | > 100000 nM | – |
| Clc1ccc(C(NCCc2c[nH]c3ccccc23)c2cccnc2)cc1 (centres undefined) | 14 nM | 190 nM | 48700 nM | – |
| CON=C(Cc1ccccc1)c1ccc(Cl)cc1 | > 10000 nM | > 10000 nM | 70200 nM | – |
| CON=C(Cc1ccccc1C)c1cccnc1 | > 1000 nM | > 1000 nM | > 100000 nM | – |
| OC(c1ccc(C(F)(F)F)cc1)(c1ccc(C(F)(F)F)cc1)c1cc2ccccc2[nH]1 | 3980 nM | 7590 nM | 11600 nM | – |
| OC(c1ccc(Cl)cc1)(c1ccncn1)c1ccccc1Cl (centres undefined) | 7050 nM | 8570 nM | – | > 100000 nM |
| Clc1ccc(C(=NN2CCCCC2)c2cccnc2)cc1 | 381 nM | 630 nM | 56800 nM | – |
| CCN1CCN(C(c2ccc(Cl)cc2)c2cccnc2)CC1 (centres undefined) | > 1000 nM | > 1000 nM | > 100000 nM | – |
| CC(C)CC(Nc1cccnc1)c1ccc(Cl)cc1 (centres undefined) | 640 nM | > 1000 nM | 56200 nM | – |
| OC(c1cccnc1)(c1cccc(C(F)(F)F)c1)c1ccccc1Cl (centres undefined) | 446 nM | 749 nM | – | 58000 nM |
| CON=C(Cc1ccccc1)c1cccnc1 | > 1000 nM | > 1000 nM | > 100000 nM | – |
| OC(c1ccc(Cl)cc1)(c1cccnc1)c1cccc(F)c1F (centres undefined) | 107 nM | 256 nM | – | > 100000 nM |
| N#CC(c1ccc(Cl)cc1)N1CCN(c2ccccc2)CC1 (centres undefined) | > 1000 nM | > 1000 nM | > 100000 nM | – |
| OC(c1ccc(Cl)cc1)(c1cccnc1)c1c(F)cccc1Cl (centres undefined) | 172 nM | 469 nM | – | 66900 nM |

| Compound | IC50 (Trypanosoma cruzi [1]) | IC90 (Trypanosoma cruzi [3]) | IC50 ([2]; IC50) | IC50 [2] |
| --- | --- | --- | --- | --- |
| Clc1ccc(C(NCC2CCCCC2)c2cccnc2)cc1 (centres undefined) | 32 nM | 80 nM | 59700 nM | – |
| Cc1ccc(C(O)(c2cccnc2)c2ccccc2Cl)cc1 (centres undefined) | 70 nM | 160 nM | – | > 100000 nM |
| CCCCC(NCC1CCCCC1)c1cccnc1 (centres undefined) | 450 nM | 700 nM | > 100000 nM | – |
| OC(c1ccc(Cl)cc1)(c1cccnc1)c1cc(F)ccc1F (centres undefined) | 44 nM | 108 nM | – | > 100000 nM |
| OC(CC1CCCCC1)(c1ccc(Cl)cc1)c1cncnc1 (centres undefined) | 154 nM | 368 nM | 64700 nM | – |
| OC(c1ccc(Cl)cc1)(c1cccnc1)c1c(F)cccc1F (centres undefined) | 80 nM | 182 nM | – | > 100000 nM |
| CS(=O)(=O)N1CCN(C(c2ccc(Cl)cc2)c2cccnc2)CC1 (centres undefined) | 110 nM | 216 nM | > 100000 nM | – |
| CC(C)CC(=O)N1CCN(C(c2ccc(Cl)cc2)c2cccnc2)CC1 (centres undefined) | 55 nM | 180 nM | > 100000 nM | – |
| CON=C(C)c1cccnc1 | > 10000 nM | > 10000 nM | – | > 100000 nM |
| CCCCOC(c1ccc(Cl)cc1)c1cccnc1 (centres undefined) | 124 nM | 296 nM | 62600 nM | – |
| OC(c1cccnc1)(c1ccccc1Cl)c1ccccc1C(F)(F)F (centres undefined) | 297 nM | 724 nM | – | > 100000 nM |
| OC(c1ccc(C(F)(F)F)cc1)(c1cccnc1)c1ccc(Cl)cc1F (centres undefined) | 1.77 nM | 5 nM | – | > 100000 nM |
| N#CC(c1ccc(Cl)cc1)c1ccccn1 (centres undefined) | > 1000 nM | > 1000 nM | > 100000 nM | – |
| O=C1CCCN1CCCNC(c1ccc(Cl)cc1)c1cccnc1 (centres undefined) | 378 nM | 820 nM | > 100000 nM | – |
| OC1CCN(C(c2ccc(Cl)cc2)c2cccnc2)CC1 (centres undefined) | 800 nM | > 1000 nM | > 100000 nM | – |
| CON=C(Cc1ccc(Cl)cc1Cl)c1cccnc1 | 2140 nM | 4870 nM | 91300 nM | – |

Second part, led by results:

| IC50 (Trypanosoma cruzi [1]) | IC90 (Trypanosoma cruzi [3]) | Compound | IC50 ([2]; IC50) | IC50 [2] |
| --- | --- | --- | --- | --- |
| 42 nM | 140 nM | Cc1ccncc1C(O)(c1ccc(Cl)cc1)c1ccc(C(F)(F)F)cc1 (centres undefined) | 56500 nM | – |
| 96 nM | 210 nM | Clc1ccc(C(NCc2ccccc2)c2cccnc2)cc1 (centres undefined) | > 100000 nM | – |
| 253 nM | 570 nM | Cc1ccncc1C(O)(c1ccc(Cl)cc1)c1cncnc1 (centres undefined) | > 100000 nM | – |
| 345 nM | 670 nM | OC(c1cccnc1)(c1cccs1)c1ccccc1Cl (centres undefined) | > 100000 nM | – |
| 201 nM | 505 nM | OC(c1ccc(Cl)cc1)(c1cccnc1)c1nccs1 (centres undefined) | > 100000 nM | – |
| 5 nM | 105 nM | OC(c1cccnc1)(c1cccs1)c1ccc(Cl)cc1F (centres undefined) | > 100000 nM | – |
| 75 nM | 380 nM | CCCC=C(c1ccc(Cl)cc1)c1cccnc1 | 79400 nM | – |
| 30 nM | 240 nM | CS(=O)(=O)Nc1ccc(C(O)(c2ccc(Cl)cc2)c2cccnc2)cc1 (centres undefined) | > 100000 nM | – |
| 62 nM | 150 nM | N#Cc1ccccc1C(O)(c1ccc(Cl)cc1)c1cccnc1 (centres undefined) | > 100000 nM | – |
| 120 nM | 390 nM | NC(=O)c1ccc(C(O)(c2ccc(C(F)(F)F)cc2)c2cccnc2)cc1 (centres undefined) | > 100000 nM | – |
| 435 nM | > 1000 nM | Cc1ccc(C(O)(c2ccc(Cl)cc2)c2cncnc2)cn1 (centres undefined) | > 100000 nM | – |
| > 1000 nM | > 1000 nM | CCCCc1ccc(C(O)(c2ccc(Cl)cc2)c2ccc(Cl)cc2)cn1 | 54700 nM | – |
| 78 nM | 154 nM | OC(c1ccc(Cl)cc1)(c1cccnc1)c1ccsc1 (centres undefined) | > 100000 nM | – |
| 17 nM | 36 nM | CCCCC(O)(c1ccc(OC(C)C)cc1)c1cccnc1 (centres undefined) | 55900 nM | – |
| 7420 nM | > 10000 nM | OC(c1ccc(Cl)cc1)(c1ccc(C(F)(F)F)cc1)c1nnc[nH]1 (centres undefined) | > 100000 nM | – |
| > 1000 nM | > 1000 nM | CO/N=C(\c1ccc(Cl)cc1)c1cccnc1 | > 100000 nM | – |
| > 1000 nM | > 1000 nM | OC(c1ccc(Cl)cc1)(c1ccc(C(F)(F)F)cc1)c1cc(-c2ccccc2)on1 (centres undefined) | 18700 nM | – |
| > 1000 nM | > 1000 nM | OC(c1ccc(Cl)cc1)(c1ccc(C(F)(F)F)cc1)c1cnc2ccccc2c1 (centres undefined) | 62600 nM | – |
| > 10000 nM | > 10000 nM | Cn1cccc1C(O)(c1ccc(Cl)cc1)c1ccc(Cl)cc1 | 55800 nM | – |
| > 1000 nM | > 1000 nM | Cc1cnc(C(O)(c2ccc(Cl)cc2)c2ccc(C(F)(F)F)cc2)cn1 (centres undefined) | 61600 nM | – |
| 33 nM | 140 nM | NC(=O)c1ccccc1C(O)(c1ccc(Cl)cc1)c1cccnc1 (centres undefined) | > 100000 nM | – |
| 2840 nM | 7490 nM | OC(c1ccc(Cl)cc1)(c1ccc(C(F)(F)F)cc1)c1ccc2ncccc2c1 (centres undefined) | 56300 nM | – |
| 293 nM | 670 nM | CC(C)Oc1ccc(C(O)(c2cccnc2)c2cnc(Cl)nc2)cc1 (centres undefined) | > 100000 nM | – |

| IC50 (Trypanosoma cruzi [1]) | IC90 (Trypanosoma cruzi [3]) | Compound | IC50 ([2]; IC50) | IC50 [2] |
| --- | --- | --- | --- | --- |
| 200 nM | 430 nM | CC(C)CNC(c1ccc(Cl)cc1)c1cccnc1 (centres undefined) | > 100000 nM | – |
| 4.5 nM | 20 nM | CC(C)c1ccc(C(O)(c2ccc(C(F)(F)F)cc2)c2cncnc2)cc1 (centres undefined) | 56500 nM | – |
| > 10000 nM | > 10000 nM | Cc1ccsc1C(O)(c1ccc(Cl)cc1)c1ccc(Cl)cc1 | 58800 nM | – |
| > 10000 nM | > 10000 nM | OC(c1ccc(Cl)cc1)(c1ccc(Cl)cc1)c1cc(-c2ccccc2)on1 | 53600 nM | – |
| 78 nM | 899 nM | COc1ccc(CNC(c2ccc(Cl)cc2)c2cccnc2)cc1 (centres undefined) | > 100000 nM | – |
| > 10000 nM | > 10000 nM | Nc1nccnc1C(O)(c1ccc(Cl)cc1)c1ccc(Cl)cc1 | 63400 nM | – |
| 139 nM | 337 nM | CC(C)CC(O)(c1ccc(Cl)cc1)c1cnccn1 (centres undefined) | > 100000 nM | – |
| 290 nM | 570 nM | Clc1ccc(C(c2cccnc2)n2cccn2)cc1 (centres undefined) | > 100000 nM | – |
| 60 nM | 230 nM | CC(C)Oc1ncc(C(O)(c2ccc(Cl)cc2)c2cccnc2)cn1 (centres undefined) | > 100000 nM | – |
| 20 nM | 90 nM | Cc1ccsc1C(O)(c1ccc(Cl)cc1)c1cccnc1 (centres undefined) | 74200 nM | – |
| > 10000 nM | > 10000 nM | OC(c1ccc(Cl)cc1)(c1ccc(Cl)cc1)c1ccco1 | 48000 nM | – |
| 500 nM | 1890 nM | CCCCC(O)(c1ccc(Cl)cc1)c1cncnc1 (centres undefined) | > 100000 nM | – |
| 509 nM | 875 nM | OC(c1cccnc1)(c1ccsc1)c1ccccc1Cl (centres undefined) | > 100000 nM | – |
| 24 nM | 67 nM | Cc1ccc(C(O)(c2ccc(Cl)cc2)c2cccnc2)s1 (centres undefined) | > 100000 nM | – |
| 560 nM | 840 nM | OC(c1ccc(Cl)cc1)(c1ccc(Cl)cc1)c1cccc(F)c1 | 53200 nM | – |
| 4750 nM | > 10000 nM | OC(c1ccc(Cl)cc1)c1cccnc1 (centres undefined) | > 100000 nM | – |
| 29 nM | 103 nM | CCCCC(O)(c1ccc(Cl)cc1)c1cccnc1 (centres undefined) | 60900 nM | – |
| > 1000 nM | > 1000 nM | Cc1noc(C)c1C(O)(c1ccc(Cl)cc1)c1ccc(C(F)(F)F)cc1 (centres undefined) | 57900 nM | – |
| 28 nM | 72 nM | OC(c1ccc(Cl)cc1)(c1cccnc1)c1sccc1Cl (centres undefined) | 70100 nM | – |
| 654 nM | 6230 nM | Clc1ccc(C(NCCN2CCOCC2)(c2cccnc2)c2ccccc2Cl)cc1 (centres undefined) | 56500 nM | – |
| 179 nM | 630 nM | OC(c1cccnc1)(c1cnc(Cl)nc1)c1ccc(Cl)cc1F (centres undefined) | > 100000 nM | – |
| 17 nM | 45 nM | Clc1ccc(C(c2cccnc2)c2cccs2)cc1 (centres undefined) | > 100000 nM | – |
| 110 nM | 510 nM | N#Cc1cccc(C(O)(c2ccc(Cl)cc2)c2cccnc2)c1 (centres undefined) | > 100000 nM | – |
